Measurements reported in patent publication EP0157637A2, “Heterocyclic compounds” (THE WELLCOME FOUNDATION LIMITED, priority 1984, dated 1985).
Read-outs that look alike come from different tables or passages of the source.

Experiments:
rats = assay: maximal electroshock test (MES), anticonvulsant activity in rats; assay type: in vivo; settings: for ED50: Rattus norvegicus
Experimental: The anticonvulsant activity of certain compounds of the present invention was determined by a standard maximal electroshock test (MES); that described by L.A. Woodbury and V.D. Davenport, Arch. Int. Pharmacodyn., 1952, 92, 97.

Eimeria tenella = assay: in vivo anticoccidial activity against Eimeria tenella; settings: Concentration 400 ppm, cleared/total
Experimental: The in vivo activity of two compounds of the present invention and a compound disclosed in US Patent No. 4189485 were determined against Eimeria tenella by the method disclosed in European Patent No. 0021293.

LD50 in the rat = settings: in vivo, po, approximate
[1] = ip, rats, i.p., read-out: MES ED50 (mg/kg) i.p.
[2] = po, rats, p.o., read-out: MES ED50 (mg/kg) p.o.

Compound	ED50 (rats; [1]) [mg/kg]	ED50 (rats; [2]) [mg/kg]	further results
CNc1ncnc2c1ncn2Cc1ccccc1F [Compound 1, 9-(2-Fluorobenzyl)-6-methylamino-9H-purine]	–	–	ED50 (rats; ip, read-out: MES ED50 (mg/kg) i.p.): 1.7 ± 0.4 mg/kg; ED50 (rats; po, read-out: MES ED50 (mg/kg) p.o.): 2.5 ± 0.4 mg/kg; E.tenella cleared (Eimeria tenella): 2/5; LD50 (LD50 in the rat): ~1000 mg/kg
CN(C)c1ncnc2c1ncn2Cc1ccccc1F [Compound 2, 6-dimethylamino-9-(2-fluorobenzyl)-9H-purine]	8.8 ± 1.7	–	E.tenella cleared (Eimeria tenella): 0/5
Fc1ccccc1Cn1cnc2c(NC3CC3)ncnc21 [Compound 3, 6-cyclopropylamino-9-(2-fluorobenzyl)-9H-purine]	5 ± 0.4	7.8 ± 0.8	–
CCNc1ncnc2c1ncn2Cc1ccccc1F [Compound 4, 6-ethylamino-9-(2-fluorobenzyl)-9H-purine]	4.9 ± 0.5	–	–
CC(C)Nc1ncnc2c1ncn2Cc1ccccc1F [Compound 5, 9-(2-fluorobenzyl)-6-isopropylamino-9H-purine]	5.8 ± 0.6	–	–
Fc1ccccc1Cn1cnc2c(NCC3CC3)ncnc21 [Compound 6, 6-cyclopropylmethylamino-9-(2-fluorobenzyl)-9H-purine]	4.3 ± 0.9	6.3 ± 1	–
CN(c1ncnc2c1ncn2Cc1ccccc1F)C1CC1 [Compound 7, 9-(2-fluorobenzyl)-6-(N-methylcyclopropylamino)-9H-purine]	6.8 ± 0.8	–	–
CCN(C)c1ncnc2c1ncn2Cc1ccccc1F [Compound 8]	2.9 ± 0.3	6 ± 0.5	–
CCCNc1ncnc2c1ncn2Cc1ccccc1F [Compound 9, 9-(2-fluorobenzyl)-6-propylamino-9H-purine]	5.1 ± 0.5	4.6 ± 1	–
CCN(CC)c1ncnc2c1ncn2Cc1ccccc1F [Compound 10, 6-diethylamino-9-(2-fluorobenzyl)-9H-purine]	4.2 ± 0.5	5.9 ± 0.6	–
Fc1ccccc1Cn1cnc2c(NC3CCCC3)ncnc21 [Compound 11, 6-cyclopentylamino-9-(2-fluorobenzyl)-9H-purine]	8 ± 1	–	–
Fc1cccc(F)c1Cn1cnc2c(NC3CC3)ncnc21 [Compound 12, 6-cyclopropylamino-9-(2,6-difluorobenzyl)-9H-purine]	4	12.5	–
CNc1ncnc2c1ncn2Cc1c(F)cccc1F [Compound 13]	2	–	–
CN(C)c1ncnc2c1ncn2Cc1c(F)cccc1F [Compound 14, ^g-(2,6-difluorobenzyl)-6-dimethylamino-9H-purine]	2.2 ± 0.2	3.8 ± 0.6	–
CNc1ncnc2c1ncn2Cc1cc(F)ccc1F [Compound 15, 9-(2,5-Difluorobenzyl)-6-methylamino-9H-purine]	4 ± 0.6	7 ± 1	–
Nc1ncnc2c1ncn2Cc1ccccc1F [Compound 16, 6-Amino-9-(2-fluorobenzyl)-9H-purine]	2.4 ± 0.6	2.2 ± 0.4	–
Nc1ncnc2c1ncn2Cc1c(F)cccc1F [Compound 27, 6-amino-9-(2,6-difluorobenzyl)-9H-purine]	9	–	–
Nc1ncnc2c1ncn2Cc1cc(F)ccc1F [Compound 28, 6-amino-9-(2,5-difluorobenzyl)-9H-purine]	5	–	–
OCNc1ncnc2c1ncn2Cc1ccccc1F [Compound 29, 9-(2-Fluorobenzyl)-6-hydroxymethylamino-9H-purine]	4	–	–
COCN(C)c1ncnc2c1ncn2Cc1ccccc1F [Compound 30, 9-(2-Fluorobenzyl)-6-(N-methoxymethyl-N-methylamino)-9H-purine]	5	–	–
COCNc1ncnc2c1ncn2Cc1ccccc1F [Compound 31, 9-(2-Fluorobenzyl)-6-methoxymethylamino-9H-purine]	–	–	MES, % at 6.25mg/kg (rats; rats, 6.25mg/kg, printed in the i.p. column in place of an ED50): (17% at 6.25mg/kg)
O=C1NC(=O)C(c2ccccc2)(c2ccccc2)N1 [phenytoin (Dilantin), 5,5-diphenylhydantoin, reference compound]	10 ± 2	20 ± 3	–
